Here are results for 20 compounds from US12662473B2, “Inhibitors for programmed cell necrosis and preparation method therefor and use thereof” (SHANGHAI INSTITUTE OF ORGANIC CHEMISTRY, CHINESE ACADEMY OF …, priority 2019, dated 2026).

As a reminder, the EC50 is the concentration at which the effect is half-maximal.

One assay has as its system L929 cells. Nature of the assay: TNF-induced programmed cell necrosis inhibition, Cell Titer-Glo viability. The format is cell-based, mouse. The following applies: Mus musculus, read-out: EC50 inhibitory activity on programmed cell necrosis. Put shortly:
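L929 mouse fibroblasts were pretreated 1 h at 37 °C with compound plus Smac (500 nM solution added), then stimulated with TNFα (500 ng/mL solution added) for 14 h. Viability was read as ATP by CellTiter-Glo luminescence, with unstimulated DMSO wells set to 100%, and EC50 values were calculated.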
On the technique in general: Cellular ATP, detected with luciferase, serves as a proxy for viable cell number.

A further assay concerns FADD−/− Jurkat cells. Described as above. The format is cell-based. The following applies: Homo sapiens, Jurkat. Put shortly:
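FADD-deficient Jurkat cells (2.5×10^5/mL) were pretreated 1 h at 37 °C with compound plus Smac (50 nM as added), then stimulated with TNFα (50 ng/mL as added) for 14 h at 37 °C, 5% CO2. Viability was measured as ATP by CellTiter-Glo luminescence, with unstimulated DMSO wells as 100%. EC50 values were derived.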

The mark [1] stands for this setting: L929, 14 h, L929 cells (mouse), TNFa + SM164.
The mark [2] stands for this setting: 14 h, TNFa + SM164, read-out: EC50 inhibitory activity on programmed cell necrosis.
Setting [3] is: TNFa, read-out: EC50 inhibitory activity on programmed cell necrosis.

Molecules are shown by their SMILES. Like-named read-outs stand apart in the source and are kept apart here.

Consider `Cc1ccc(C2CCCN2C(=O)C(C)(C)Oc2ccc(Cl)cn2)cc1` (centres unmarked) [QY-13-42], for which the EC50 in the assay on L929 cells (setting [1]) came out at 0.322 µM; with L929 cells (L929, L929 cells (mouse), TNFa), 0.102 µM; in the assay on FADD−/− Jurkat cells (setting [2]), 4.9 µM; in the assay on FADD−/− Jurkat cells (setting [3]) it was 3.95e-05 µM.

With `Cc1ccc(C2CCCN2C(=O)C(C)(C)Oc2ccc(C#N)cn2)cc1` (centres unmarked) [QY-13-68], the EC50 in the assay on L929 cells (setting [1]) was 0.00452 µM; in the assay on L929 cells (L929, L929 cells (mouse), TNFa), 0.00206 µM; in the assay on FADD−/− Jurkat cells (setting [2]), 2.42 µM; in the assay on FADD−/− Jurkat cells (setting [3]), 0.027 µM.

On to `Cc1ccc(C2CCCN2C(=O)C(C)(C)Oc2ncc(Cl)cn2)cc1` (centres unmarked) [QY-13-70], for which the EC50 in the assay with L929 cells (setting [1]) is 1.93 µM; with L929 cells (L929, L929 cells (mouse), TNFa), 0.221 µM; with FADD−/− Jurkat cells (setting [2]) it was over 10 µM; in the assay with FADD−/− Jurkat cells (setting [3]), 0.477 µM.

For the compound `Cc1ccc(C2CCCN2C(=O)C(C)(C)Nc2ncc(Cl)cn2)cc1` (centres unmarked) [QY-13-86], the EC50 with L929 cells (setting [1]) is over 10 µM; with L929 cells (L929, L929 cells (mouse), TNFa), over 10 µM; in the assay with FADD−/− Jurkat cells (setting [2]), over 10 µM; in the assay on FADD−/− Jurkat cells (setting [3]) it was over 10 µM.

In the case of `Cc1ccc(C2CCCN2C(=O)C(C)(C)C(=O)N2CCC(C)CC2)cc1` (centres unmarked) [QY-14-8], the EC50 in the assay with L929 cells (setting [1]) was over 10 µM; in the assay on L929 cells (L929, L929 cells (mouse), TNFa) it was over 10 µM; in the assay with FADD−/− Jurkat cells (setting [2]), over 10 µM; with FADD−/− Jurkat cells (setting [3]), over 10 µM.

Consider `Cc1ccc(C2CCCN2C(=O)C(C)(C)C(=O)N2CCN(C)CC2)cc1` (centres unmarked) [QY-14-9], for which the EC50 is over 10 µM in the assay with L929 cells (setting [1]); over 10 µM with L929 cells (L929, L929 cells (mouse), TNFa); over 10 µM with FADD−/− Jurkat cells (setting [2]); over 10 µM in the assay with FADD−/− Jurkat cells (setting [3]).

With `Cc1ccc(C2CCCN2C(=O)C(C)(C)Oc2cccc(C(N)=O)c2)cc1` (centres unmarked) [QY-14-17], the EC50 was over 10 µM in the assay on L929 cells (setting [1]); over 10 µM in the assay on L929 cells (L929, L929 cells (mouse), TNFa); over 10 µM with FADD−/− Jurkat cells (setting [2]); over 10 µM with FADD−/− Jurkat cells (setting [3]).

In the case of `Cc1ccc(C2CCCN2C(=O)C(C)(C)Oc2cccc(C#N)c2)cc1` (centres unmarked) [QY-14-24], the EC50 in the assay on L929 cells (setting [1]) is 0.066 µM; with L929 cells (L929, L929 cells (mouse), TNFa), 0.0154 µM; in the assay on FADD−/− Jurkat cells (setting [2]) it was 0.939 µM; with FADD−/− Jurkat cells (setting [3]) it was 0.022 µM.

`CNC(=O)c1cccc(OC(C)(C)C(=O)N2CCCC2c2ccc(C)cc2)c1` (centres unmarked) [QY-14-25]: the EC50 was over 10 µM in the assay with L929 cells (setting [1]); over 10 µM in the assay with L929 cells (L929, L929 cells (mouse), TNFa); over 10 µM in the assay on FADD−/− Jurkat cells (setting [2]); over 10 µM with FADD−/− Jurkat cells (setting [3]).

Regarding `Cc1ccc(C2CCCN2C(=O)C(C)(C)Oc2cc(C(N)=O)ncn2)cc1` (centres unmarked) [QY-14-27], the EC50 with L929 cells (setting [1]) was over 10 µM; in the assay with L929 cells (L929, L929 cells (mouse), TNFa), 8.45 µM; in the assay on FADD−/− Jurkat cells (setting [2]) it was over 10 µM; in the assay on FADD−/− Jurkat cells (setting [3]), over 10 µM.

Regarding `Cc1ccc(C2CCCN2C(=O)C(C)(C)C(=O)N2CCCC2)cc1` (centres unmarked) [QY-14-29], the EC50 was over 10 µM in the assay on L929 cells (setting [1]); over 10 µM in the assay with L929 cells (L929, L929 cells (mouse), TNFa); over 10 µM with FADD−/− Jurkat cells (setting [2]); over 10 µM in the assay on FADD−/− Jurkat cells (setting [3]).

Turning to `Cc1ccc(C2CCCN2C(=O)C(C)(C)C(=O)n2cccn2)cc1` (centres unmarked) [QY-14-30], the EC50 with L929 cells (setting [1]) is over 10 µM; in the assay with L929 cells (L929, L929 cells (mouse), TNFa), 4.89 µM; with FADD−/− Jurkat cells (setting [2]), over 10 µM; with FADD−/− Jurkat cells (setting [3]), over 10 µM.

On to `Cc1ccc(C2CCCN2C(=O)C(C)(C)C(=O)N2CCNC(=O)C2)cc1` (centres unmarked) [QY-14-31], for which the EC50 is over 10 µM in the assay with L929 cells (setting [1]); over 10 µM in the assay on L929 cells (L929, L929 cells (mouse), TNFa); over 10 µM in the assay on FADD−/− Jurkat cells (setting [2]); over 10 µM with FADD−/− Jurkat cells (setting [3]).

Take `Cc1ccc(C2CCCN2C(=O)C(C)(C)C(=O)N2CCNCC2)cc1` (centres unmarked) [QY-14-33]: the EC50 with L929 cells (setting [1]) is over 10 µM; in the assay with L929 cells (L929, L929 cells (mouse), TNFa) it was over 10 µM; in the assay on FADD−/− Jurkat cells (setting [2]) it was over 10 µM; with FADD−/− Jurkat cells (setting [3]) it was over 10 µM.

As for `Cc1ccc(C2CCCN2C(=O)C(C)(C)Oc2ccc(C(N)=O)cc2)cc1` (centres unmarked) [QY-14-34], the EC50 in the assay on L929 cells (setting [1]) was over 10 µM; with L929 cells (L929, L929 cells (mouse), TNFa), 0.816 µM; in the assay on FADD−/− Jurkat cells (setting [2]) it was over 10 µM; in the assay with FADD−/− Jurkat cells (setting [3]), 2.36 µM.

Turning to `Cc1ccc(C2CCCN2C(=O)C(C)(C)Oc2cc(C#N)ncn2)cc1` (centres unmarked) [QY-14-35], the EC50 in the assay with L929 cells (setting [1]) was over 10 µM; with L929 cells (L929, L929 cells (mouse), TNFa), over 10 µM; in the assay on FADD−/− Jurkat cells (setting [2]), over 10 µM; in the assay on FADD−/− Jurkat cells (setting [3]) it was over 10 µM.

With `COc1cc(Cl)ccc1OC(C)(C)C(=O)N1N=CCC1c1cncc(F)c1` (centres unmarked) [QY-14-40], the EC50 in the assay on L929 cells (setting [1]) is over 10 µM; in the assay with L929 cells (L929, L929 cells (mouse), TNFa), over 10 µM; in the assay with FADD−/− Jurkat cells (setting [2]), over 10 µM; in the assay with FADD−/− Jurkat cells (setting [3]), over 10 µM.

Consider `Cc1ccc(C2CCCN2C(=O)C(C)(C)C(=O)N2CCCCC2)cc1` (centres unmarked) [QY-14-44], for which the EC50 with L929 cells (setting [1]) was over 10 µM; in the assay on L929 cells (L929, L929 cells (mouse), TNFa), over 10 µM; in the assay with FADD−/− Jurkat cells (setting [2]) it was over 10 µM; with FADD−/− Jurkat cells (setting [3]), over 10 µM.

On to `Cc1ccc(C2CCCN2C(=O)C(C)(C)Oc2ccc(C#N)c(C#N)c2)cc1` (centres unmarked) [QY-14-59], for which the EC50 is over 10 µM in the assay with L929 cells (setting [1]); 0.467 µM in the assay on L929 cells (L929, L929 cells (mouse), TNFa); over 10 µM in the assay with FADD−/− Jurkat cells (setting [2]); 4.57 µM with FADD−/− Jurkat cells (setting [3]).

In the case of `Cc1ccc(C2CCCN2C(=O)C(C)(C)Oc2ccc(Cl)c(C#N)c2)cc1` (centres unmarked) [QY-14-60], the EC50 with L929 cells (setting [1]) was found to be 0.497 µM; in the assay on L929 cells (L929, L929 cells (mouse), TNFa), 0.141 µM; in the assay with FADD−/− Jurkat cells (setting [2]), 1.62 µM; with FADD−/− Jurkat cells (setting [3]) it was 0.283 µM.
